Source: patent US9394297B2, “Amides as pim inhibitors” (AMGEN INC., priority 2012, dated 2016)
pIC50: −log10 of the molar value. Where a name gives a salt, the structure may show the parent alone. Read-outs that look alike come from different tables or passages of the source.

How the values were obtained:
Pim-1 = Pim-1 (Homo sapiens (Human), UniProt P11309); assay: Pim-Mn enzyme assay (HTRF, 384-well), Pim-1; type: biochemical; details: Pim-1 enzyme 5 pM, ATP 1.5 μM, BAD (S112) 0.5 μM, HTRF, 22-point curve; read-out: Pim-1-Mn IC50 IP
Pim-2 = Pim-2 (Homo sapiens (Human), UniProt Q9P1W9); assay: Pim-Mn enzyme assay (HTRF, 384-well), Pim-2; type: biochemical; details: read-out: Pim-2-Mn IC50 IP
KMS-12-BM cell lines = assay: KMS12 #2 flow cytometry assay (phospho-BAD Ser112); type: cell-based; details: KMS-12-BM cells, pBAD Ser112 by flow cytometry, 110 min with compound, read-out: KMS-12-Flow IC50 IP
[1] = Pim-2 enzyme 0.5 pM, ATP 1.5 μM, BAD (S112) 0.5 μM, HTRF, 22-point curve

Sequence of Pim-1 (P11309 whole entry): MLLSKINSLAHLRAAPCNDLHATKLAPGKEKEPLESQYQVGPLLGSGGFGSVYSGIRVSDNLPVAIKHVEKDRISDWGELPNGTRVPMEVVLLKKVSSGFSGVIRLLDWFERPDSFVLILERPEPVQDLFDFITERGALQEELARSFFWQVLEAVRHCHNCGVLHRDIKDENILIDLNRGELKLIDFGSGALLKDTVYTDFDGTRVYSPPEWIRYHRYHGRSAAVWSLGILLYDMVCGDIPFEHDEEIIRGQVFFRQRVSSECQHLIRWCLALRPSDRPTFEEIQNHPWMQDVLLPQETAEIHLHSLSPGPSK
Sequence of Pim-2 (Q9P1W9 whole entry): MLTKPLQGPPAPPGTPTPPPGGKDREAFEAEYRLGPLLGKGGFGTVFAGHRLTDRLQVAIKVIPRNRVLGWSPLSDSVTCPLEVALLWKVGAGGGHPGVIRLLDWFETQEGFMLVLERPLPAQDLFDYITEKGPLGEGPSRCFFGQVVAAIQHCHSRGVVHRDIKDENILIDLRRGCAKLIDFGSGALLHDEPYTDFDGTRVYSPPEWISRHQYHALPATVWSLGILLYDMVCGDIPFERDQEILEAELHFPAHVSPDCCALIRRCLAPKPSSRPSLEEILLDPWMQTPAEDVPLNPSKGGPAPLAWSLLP

| Structure (SMILES) | pIC50 (Pim-1) | pIC50 (KMS-12-BM cell lines; Homo sapiens, 110 min) | other results |
| --- | --- | --- | --- |
| Cc1nc2cccc(-c3cc4c([nH]3)CCNC4=O)c2nc1-c1nccn1C [Example 432, 2-(2-Methyl-3-(1-methyl-1H-imidazol-2-yl)quinoxalin-5-yl)-6,7-dihydro-1H-pyrrolo[3,2-c]pyridin-4(5H)-one] | 6.38 | < 4.40 | pIC50 (Pim-2; [1]): 6.61 |
| Cc1nc2cccc(-c3cc4c([nH]3)C3(CC3)NC4=O)c2nc1NC(C)(C)C [Example 324, 2′-(3-(tert-butylamino)-2-methyl-5-quinoxalinyl)-1′H-spiro[cyclopropane-1,6′-pyrrolo[3,4-b]pyrrol]-4′(5′H)-one] | 9.86 | 7.04 | pIC50 (Pim-2): 9.65 |
| Cc1nc2ccc(F)c(-c3cc4c([nH]3)[C@@H](C)NC4=O)c2nc1NC1CC1 [Example 284, (R)-2-(3-(cyclopropylamino)-6-fluoro-2-methylquinoxalin-5-yl)-6-methyl-5,6-dihydropyrrolo[3,4-b]pyrrol-4(1H)-one] | 10.55 | 7.73 | pIC50 (Pim-2; [1]): 10.42 |
| C[C@H]1NC(=O)c2cc(-c3cccc4c(=O)[nH]c(N(C)C(C)(C)C)nc34)[nH]c21 [Example 407, 2-(tert-butyl(methyl)amino)-8-((6R)-6-methyl-4-oxo-1,4,5,6-tetrahydropyrrolo[3,4-b]pyrrol-2-yl)-4(3H)-quinazolinone] | – | 6.84 | pIC50 (Pim-2; [1]): 9.40 |
| Cc1nc2cccc(-c3cc4c([nH]3)CCNC4=O)c2nc1N[C@H]1C[C@@H](N)C1 [Example 435, 2-(3-((cis-3-aminocyclobutyl)amino)-2-methylquinoxalin-5-yl)-6,7-dihydro-1H-pyrrolo[3,2-c]pyridin-4(5H)-one hydrochloride] | 9.46 | 5.52 | – |
| Cc1nc2cccc(-c3cc4c([nH]3)CCNC4=O)c2nc1-c1cccnc1Cl [Example 410, 2-(3-(2-chloro-3-pyridinyl)-2-methyl-5-quinoxalinyl)-1,5,6,7-tetrahydro-4H-pyrrolo[3,2-c]pyridin-4-one] | – | 4.66 | – |
| C[C@H]1NC(=O)c2cc(-c3c(F)ccc4c(=O)n(C)c(NC(C)(C)C)nc34)[nH]c21 [Example 405, 2-(tert-butylamino)-7-fluoro-3-methyl-8-((6R)-6-methyl-4-oxo-1,4,5,6-tetrahydropyrrolo[3,4-b]pyrrol-2-yl)-4(3H)-quinazolinone] | – | 7.55 | – |
| Cc1nc2ccc(F)c(-c3cc4c([nH]3)[C@H](C)NC4=O)c2nc1NC(C)(C)C [Example 298, (6S)-2-(3-(tert-butylamino)-6-fluoro-2-methyl-5-quinoxalinyl)-6-methyl-5,6-dihydropyrrolo[3,4-b]pyrrol-4(1H)-one] | – | 7.24 | – |
| Cc1nc2cccc(-c3cc4c([nH]3)[C@@H](C)NC4=O)c2nc1NCC(F)F [Example 382, (R)-2-(3-((2,2-difluoroethyl)amino)-2-methylquinoxalin-5-yl)-6-methyl-5,6-dihydropyrrolo[3,4-b]pyrrol-4(1H)-one] | – | 7.08 | – |
| Cc1nc2cccc(-c3cc4c([nH]3)C(CCN)NC4=O)c2nc1NC(C)(C)C (centres unmarked) [Example 463, 6-(2-aminoethyl)-2-(3-(tert-butylamino)-2-methyl-5-quinoxalinyl)-5,6-dihydropyrrolo[3,4-b]pyrrol-4(1H)-one] | – | 8.05 | – |
| Cc1nc2cccc(-c3[nH]c4c(c3Cl)C(=O)NCC4)c2nc1NC(C)(C)C [Example 348, 2-(3-(tert-butylamino)-2-methyl-5-quinoxalinyl)-3-chloro-1,5,6,7-tetrahydro-4H-pyrrolo[3,2-c]pyridin-4-one] | – | 6.72 | – |
| Cc1nc2cccc(-c3cc4c([nH]3)CCNC4=O)c2nc1N[C@H]1C[C@@H](N2CCOC2=O)C1 [Example 443, 3-((1s,3s)-3-((3-methyl-8-(4-oxo-4,5,6,7-tetrahydro-1H-pyrrolo[3,2-c]pyridin-2-yl)quinoxalin-2-yl)amino)cyclobutyl)oxazolidin-2-one] | – | – | pIC50 (KMS-12-BM cell lines): < 4.40 |
| Cc1nc2cccc(-c3cc4c([nH]3)CCNC4=O)c2nc1-c1c(F)cccc1Cl [Example 414, 2-(3-(2-chloro-6-fluorophenyl)-2-methyl-5-quinoxalinyl)-1,5,6,7-tetrahydro-4H-pyrrolo[3,2-c]pyridin-4-one] | – | 5.23 | – |
| C[C@H]1NC(=O)c2cc(-c3cccc4c(=O)n(C5CC5)c(NC(C)(C)C)nc34)[nH]c21 [Example 475, 2-(tert-butylamino)-3-cyclopropyl-8-((6R)-6-methyl-4-oxo-1,4,5,6-tetrahydropyrrolo[3,4-b]pyrrol-2-yl)-4(3H)-quinazolinone] | – | 7.55 | – |
| Cc1nc2cccc(-c3cc4c([nH]3)C(CO)NC4=O)c2nc1NC(C)(C)C (racemic) [Example 469, (R)-2-(3-(tert-butylamino)-2-methylquinoxalin-5-yl)-6-(hydroxymethyl)-5,6-dihydropyrrolo[3,4-b]pyrrol-4(1H)-one and (S)-2-(3-(tert-butylamino)-2-methylquinoxalin-5-yl)-6-(hydroxymethyl)-5,6-dihydropyrrolo[3,4-b]pyrrol-4(1H)-one] | – | 6.92 | – |
| Cc1nc2cccc(-c3cc4c([nH]3)CCNC4=O)c2nc1NC(C)(C)CNC(=O)OC(C)(C)C [Example 339, tert-butyl (2-methyl-2-((3-methyl-8-(4-oxo-4,5,6,7-tetrahydro-1H-pyrrolo[3,2-c]pyridin-2-yl)-2-quinoxalinyl)amino)propyl)carbamate] | 7.29 | 5.60 | – |
| Cc1nc2cccc(-c3cc4c([nH]3)[C@@H](C)NC4=S)c2nc1NC(C)(C)C [Example 332, (6R)-2-(3-(tert-butylamino)-2-methyl-5-quinoxalinyl)-6-methyl-5,6-dihydropyrrolo[3,4-b]pyrrole-4(1H)-thione] | – | < 4.40 | – |
| CC(C)(C)Nc1ccc2cccc(-c3cc4c([nH]3)CCNC4=O)c2n1 [Example 340, 2-(2-(tert-butylamino)-8-quinolinyl)-1,5,6,7-tetrahydro-4H-pyrrolo[3,2-c]pyridin-4-one] | – | 6.23 | – |
| Cc1nc2cccc(-c3cc4c([nH]3)CCNC4=O)c2nc1N[C@H]1C[C@@H](NCC(F)(F)F)C1 [Example 444] | – | 6.33 | – |
| Cc1nc2cccc(-c3cc4c(n3C)C(CO)NC4=O)c2nc1NC(C)(C)C (racemic) [Example 470, (R)-2-(3-(tert-butylamino)-2-methylquinoxalin-5-yl)-6-(hydroxymethyl)-1-methyl-5,6-dihydropyrrolo[3,4-b]pyrrol-4(1H)-one and (S)-2-(3-(tert-butylamino)-2-methylquinoxalin-5-yl)-6-(hydroxymethyl)-1-methyl-5,6-dihydropyrrolo[3,4-b]pyrrol-4(1H)-one] | – | 5.89 | – |
| Cc1nc2cccc(-c3cc4c([nH]3)CCCNC4=O)c2nc1NC(C)(C)C [Example 305, 2-(3-(tert-butylamino)-2-methylquinoxalin-5-yl)-5,6,7,8-tetrahydropyrrolo[3,2-c]azepin-4(1H)-one] | 8.58 | 5.79 | – |
| Cn1c(NC(C)(C)C)nc2c(-c3cc4c([nH]3)CCNC4=O)cccc2c1=O [Example 448, 2-(tert-butylamino)-3-methyl-8-(4-oxo-4,5,6,7-tetrahydro-1H-pyrrolo[3,2-c]pyridin-2-yl)-4(3H)-quinazolinone] | – | 7.51 | pIC50 (Pim-2; [1]): 9.77 |
| CC(=O)N1CCc2[nH]c(-c3cccc4nc(C)c(NC(C)(C)C)nc34)cc2C1=O [Example 315, 5-acetyl-2-(3-(tert-butylamino)-2-methylquinoxalin-5-yl)-6,7-dihydro-1H-pyrrolo[3,2-c]pyridin-4(5H)-one] | 7.45 | 6.05 | – |
